We go through two compounds from patent US5383848A, “Iontophoretic administration of drugs” (Gensia, Inc., priority 1991, dated 1995).

This assay relates to elevated heart rate. Nature of the assay: In vivo dog experiments: heart rate offset after iontophoretic ESA drug with pretreatment (Example A). Set-up: species or system labrador dogs. To be noted: for Reduction in offset time: iontophoretic pre-delivery; for Offset Slope Component (0-5) min: 0-5 min after heart rate begins to decline; for Offset Slope Component (5-10) min: 5-10 min after decline begins; for Offset Slope Component (10-30) min: 10-30 min after decline begins; for Change in Heart Rate (peak minus baseline) / Peak Heart Rate: Table II; for Onset Slope: baseline at onset time to peak heart rate; for Offset time: drug delivery stopped until within 20 bpm of baseline; for Offset Slope: drug shut-off to 20 bpm above baseline; for Delay: drug shut-off to start of heart rate decline; for t 1/2 of elevated heart rate decay: exponential fit; for Onset time: start of delivery to start of increase in heart rate; for Time Start Decline: time when elevated heart rate began to decline.

On to `Cc1ccc(N(CC2=NCCN2)c2cccc(O)c2)cc1` [Phentolamine], for which the “Reduction in offset time” value is listed as “found effective when pre-delivered iontophoretically”.
In the case of `CC[C@@H]1C(=O)OC[C@@H]1Cc1cncn1C` [Pilocarpine], the “Reduction in offset time” value was “also reduce offset time”. Under “listed as 7”, the “Offset Slope Component (0-5) min” value was -1.70 beats per minute per minute, the “Offset Slope Component (5-10) min” value was -2.50 beats per minute per minute, the “Offset Slope Component (10-30) min” value is -1.10 beats per minute per minute and the “Change in Heart Rate (peak minus baseline)” value came out at 73 bpm. Further, for the setting “listed as 7”, the “Peak Heart Rate” value is 133 bpm, the “Onset Slope” value is 11.60 beats per minute per minute, the Offset time amounted to 38.00 min and the “Offset Slope” value is reported as -1.10 beats per minute per minute. Also, where the note is “listed as 7”, the Delay is given as 1.30 min, the Onset time was 6.70 min and the “Time Start Decline” value turned out to be 23.80 min. Besides, under “listed as 8”, the “Offset Slope Component (0-5) min” value is -7.60 beats per minute per minute, the “Offset Slope Component (5-10) min” value is on record as -1.40 beats per minute per minute, the “Offset Slope Component (10-30) min” value was -1.00 beats per minute per minute and the “Change in Heart Rate (peak minus baseline)” value worked out at 114 bpm. Further, for the setting “listed as 8”, the “Peak Heart Rate” value is recorded as 191 bpm, the “Onset Slope” value is reported as 11.20 beats per minute per minute, the Offset time was 36.00 min and the “Offset Slope” value is -1.70 beats per minute per minute. Also, where the note is “listed as 8”, the Delay stood at 5.30 min, the Onset time was found to be 13.00 min and the “Time Start Decline” value was 24.30 min. In addition, the “Percent decline in heart rate, ranking” value (5-10 minute interval, FIG. 1) is “next highest percent declines”. Under “FIG. 2”, the “Delay to onset of heart rate decline, ranking” value is reported as “shortest delay”. For the setting “Table IV”, the “Total time (startup) thru offset plateau: in words” value was “Never reached w/in 20 bpm of baseline” and the “Total time (startup) thru offset plateau: w/in 20 bpm of baseline” value amounted to 60 min. Moreover, the “t 1/2 of elevated heart rate decay” value (Table IV, listed as 7) was 28.85 min. The “t 1/2 of elevated heart rate decay” value (Table IV, listed as 8) is 21.36 min.
